From patent US9949489B2, “Methods for control of hemipteran insect stylet sheath structure formation” (The United States of America, as Represented by the …, priority 2015, dated 2018)

Columns and labels:
D. citri [1] = assay: Liquid ACP diet sandwich feeding assay (MFC): inhibition of de novo stylet sheath formation; assay type: in vivo, Diaphorina citri; settings: about 24 h; cellulase approx 1 unit/μl; BAPN 100 mM; EDTA approx 2 mM; proteases per Table 5
Method: The next step was to determine if addition of cellulase to the diet of D. citri would interfere with stylet sheath formation. A D. citri diet is prepared as described by Hall, David et al., “Research toward an artificial diet for adult Asian citrus psyllid,” Annals of the Entomological Society of America 103.4:611-617 (2010). Approximately 25 D. citri were collected into polystyrene Cellstar 35 mm×10 mm dishes (Griener Bio-One, Monroe, N.C.) that were then sealed using a single layer of Parafilm® M (Pechiney Plastic Packaging Company, Chicago, Ill.). Approximately 99 μl of liquid ACP diet (e.g., diet lacking the solidifying agar component, see Hall, et. al., 2010, supra) was mixed with approximately 1 μl of cellulase (Sigma Aldrich, St. Louis, Mo.) and mixed. […] layer Parafilm® M surface, which was then covered with another layer of Parafilm® M to form a sandwich (e.g., Parafilm® M—liquid ACP diet with cellulase—Parafilm® M) to allow ACP to feed into the liquid ACP diet containing cellulase. This MFC was then incubated at about 25° C., at about 75% relative humidity, with a light:dark cycle of approximately 14:10 hours for a period of about 24 hours. After about 24 hours, the stylet sheaths were observed using an inverted microscope. FIGS. 3G through 3I are images of three separate locations where D. citri made attempts to feed into the liquid ACP diet containing approximately 1 unit/μl cellulase.
Because many biomolecule polymerizing enzymes require divalent cations as cofactors, the effect of ethylenediaminetetraacetic acid (EDTA), a chelator of divalent cations, on ACP SS formation was tested by adding EDTA to the previously described liquid ACP diet (see Hall et al., 2010, supra). The EDTA was added to the liquid ACP diet at a concentration of approximately 2 mM EDTA in diH2O. Approximately 200 D. citri were placed in plastic Petri dishes. The dishes were covered with a single layer of Parafilm® M to form MFC. […] The MFC plates were incubated at a temperature of about 25° C., a relative humidity of about 75%, and a light/dark cycle of about 14:10 hours duration. Following the 24-hour incubation, the fluid (either liquid ACP diet containing EDTA or just the liquid ACP diet) between the two sheets of plastic was harvested by using a sterile 5 ml syringe and 20-gauge needle which was pushed into the center of the Parafilm® M-fluid-Parafilm® M sandwich, and the fluid was then removed by syringe plunger suction. The harvested fluids were put into sterile 50 ml conical vials, placed at about −80° C. until frozen. Each vial of harvested fluid was then lypholyzed overnight. The lyophilized product was then solubilized in […], placed at about −80° C. until frozen, then each new vial was lyopholyzed overnight. The lyophilized product was then solubilized in approximately 15 μL of approximately 1× Laemmili buffer (Bio-Rad, Hercules, Calif.) containing approximately 5% 2-mercaptoethanol. The sample was loaded onto a sodium dodecyl sulfate polyacrylamide gel (SDS-PAGE) and underwent electrophoresis. The SDS PAGE gel was then stained with coomassie. Uncommon bands between the liquid ACP diet containing EDTA and liquid ACP diet without EDTA (negative control) lanes were cut out and analyzed by Orbitrap (Thermo Scientific, Waltham, Mass.) protein analysis, according to manufacturer's protocol.
After about 24-hour incubation, D. citri feeding sites were observed. […] See also Table 2 and Table 3, infra.

[2] = tested on: D. citri stylet sheaths (ACP SSs); assay: Degradation of preformed, solidified stylet sheaths by enzymes (MFC membrane or slide incubation); parameters: species or system Diaphorina citri; key to Sheath Degradation: −: No effect apparent; +/−: inconclusive; +: apparent slight effect; ++: increased apparent effect; +++: high effect; ++++: very high effect; +++++: complete degradation of sheaths or inhibition of sheath synthesis; settings: D. citri preformed sheaths; enzyme concentration, pH and temperature per Table 4 (cellulase 1:25, pH 6.0, 60° C.)
Method: In order to test cellulase's effect on preformed ACP SSs, formed, solidified stylet sheaths were harvested directly from the surface of an MFC membrane (in these experiments either plastic wrap or parafilm was used) as described herein and in Morgan et al. 2013, supra. Approximately 100 psyllids were placed into an MFC for about 24 hours. The MFCs consisted of D. citri caged individually and/or in groups within 100 mm×15 mm plastic Petri dishes. A single kitchen plastic wrap layer was stretched across the top of each Petri dish to seal the Petri dish from insect escape and to provide a stylet penetrable surface for insect probing.
Several MFCs (the Petri dishes covered with kitchen plastic wrap or parafilm and containing D. citri) were placed into clear Pyrex® baking dishes with the membrane (kitchen plastic wrap or parafilm) side up, and the Pyrex® baking dish is covered with a single layer of clear kitchen plastic wrap to prevent external contaminant interactions with the membrane surface during incubation. MFCs were incubated at a temperature of about 25° C., relative humidity of about 75%, and a light:dark cycle of about […]. […]

D. citri [3] = assay: Liquid ACP diet sandwich feeding assay (MFC): inhibition of de novo stylet sheath formation; assay type: in vivo, Diaphorina citri; parameters: key: −: No effect apparent; +/−: inconclusive; +: apparent slight effect; ++: increased apparent effect; +++: high effect; ++++: very high effect; +++++: complete degradation of sheaths or inhibition of sheath synthesis; settings: enzyme in liquid ACP diet, about 24 h, 25° C., enzyme amounts and pH per Table 5 (cellulase approx 1 unit/μl)
Method: The next step was to determine if addition of cellulase to the diet of D. citri would interfere with stylet sheath formation. A D. citri diet is prepared as described by Hall, David et al., “Research toward an artificial diet for adult Asian citrus psyllid,” Annals of the Entomological Society of America 103.4:611-617 (2010). Approximately 25 D. citri were collected into polystyrene Cellstar 35 mm×10 mm dishes (Griener Bio-One, Monroe, N.C.) that were then sealed using a single layer of Parafilm® M (Pechiney Plastic Packaging Company, Chicago, Ill.). Approximately 99 μl of liquid ACP diet (e.g., diet lacking the solidifying agar component, see Hall, et. al., 2010, supra) was mixed with approximately 1 μl of cellulase (Sigma Aldrich, St. Louis, Mo.) and mixed. […]
Because many biomolecule polymerizing enzymes require divalent cations as cofactors, the effect of ethylenediaminetetraacetic acid (EDTA), a chelator of divalent cations, on ACP SS formation was tested by adding EDTA to the previously described liquid ACP diet (see Hall et al., 2010, supra). […] Uncommon bands between the liquid ACP diet containing EDTA and liquid ACP diet without EDTA (negative control) lanes were cut out and analyzed by Orbitrap (Thermo Scientific, Waltham, Mass.) protein analysis, according to manufacturer's protocol. […]

Chymopapain from papaya latex: Cysteine peptidase; Sigma #C8526
Effect on D. citri stylet sheath formation in liquid ACP diet (D. citri [1]): capable of inhibiting the formation of ACP SSs
Sheath Degradation [2]: +++++
Inhibition of Sheath Formation (D. citri [3]): +++++
